From patent publication US20040127403A1, “Methods for treating and preventing Gram-positive bacteremias” (priority 2002, published 2004)

What was measured:
[1] = test system: VanA strain of E. faecium (VRE); test: Suppression of VRE in a mouse colonization model; assay type: in vivo, Mice
Experimental: Mice were colonized with a clinical isolate VanA strain of E. faecium (VRE) isolated from a septicemic patient. A single inoculation of 5×10^8 cfu VRE by oral gavage (Day 0) was followed by treatment with vancomycin in the drinking water to maintain colonization. On day 22, each group received the same vancomycin-containing drinking water. One group also received ramoplanin (100 μg/mL) in its drinking water. The dose of ramoplanin per day was estimated to be 15 mg/kg, based on a standard water consumption of 150 mL/kg/day. Treatment with ramoplanin was discontinued on Day 29, and vancomycin treatment was discontinued on Day 36. The control group consisted of five mice, while the ramoplanin group consisted of four mice.

[2] = test system: Gram-positive bacteria (staphylococci, streptococci, enterococci) in feces; test: Multiple dose study: activity on stool microflora, Gram-positive bacteria; assay type: in vivo, human
Experimental: (§1) Healthy male volunteers were administered 200, 400, or 800 mg ramoplanin twice-a-day, for ten consecutive days. The predetermined dose was reconstituted in 5 mL water per vial, mixed with 50 mL of sweetened, aromatized solution, and immediately administered orally to the subjects.
(§2) The antibacterial activity of ramoplanin on the stool microflora was assessed in a subset of the subjects. Microbial concentrations (i.e., the number of organisms per gram of fecal matter) were determined at the following time points: Day-4 (pre-treatment), Days 4 and 10 (treatment), and Days […] and 24 (follow-up). Tolerability and absorption were also investigated.

Clostridium spp. = test: Multiple dose study: activity on stool microflora, Clostridium; assay type: in vivo, human
Experimental: as §1, §2

[3] = In vitro interaction of ramoplanin with human intestinal contents
Excerpt: The in vitro interaction of ramoplanin with human intestinal contents was studied. […] The binding and the subsequent release of ramoplanin from feces would likely result in long-lasting concentrations in the intestinal tract.

VRE [4] = test: Multiple dose study in asymptomatic carriers of intestinal VRE; assay type: in vivo, human; settings: for patients with no detectable VRE, number / patients with no detectable VRE: Day 7; for patients with no detectable VRE: rectal swab; for patients VRE free: Day 14 (seven days after cessation); for patients VRE free, number: Day 14
Experimental: Patients identified as asymptomatic carriers of VRE were administered placebo or one of two dosages (100 mg, 400 mg) of ramoplanin b.i.d. (twice daily) for seven days. Patients were assessed by rectal swab on Days 7, 14, and 21 to determine the presence or absence of VRE. On Days 45 and 90, stool samples were analyzed for long-term effects of ramoplanin on the recurrence of, or re-infection with, VRE. All VRE isolates were tested for susceptibility to ramoplanin.

fecal Enterococci = test: Oral formulation study: suppression of fecal Enterococci; assay type: in vivo, human; settings: 400 mg b.i.d. seven days, granulated powder in Orasweet syrup; day 7/8
Experimental: (§3) To further elucidate the pharmacodynamics and intestinal bioavailability, healthy male volunteers (18-45 years; BMI—19-29 kg/m^2) were administered oral ramoplanin (400 mg b.i.d.) for seven days and fecal Enterococci were monitored. Ramoplanin was administered to six subjects as a granulated powder admixed with Orasweet® syrup vehicle.
The presence of fecal enterococci was confirmed in all subjects prior to study initiation. Fecal samples were cultured on day 7/8. The pharmacodynamic endpoints was the number of subjects with successful suppression of fecal Enterococci on day 7/8 compared to the pre-study culture.

[5] = Oral formulation study: ramoplanin in feces, plasma and urine; assay type: in vivo, human; settings: 400 mg b.i.d. seven days
Experimental: as §3

E. faecalis A7789 Line-R = test: MIC, NCCLS broth microdilution; assay type: cell-based; settings: Table 6, 1st
Procedure, shortened: (§4)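 CAMHB and TSB, each + 0.02% BSA (blocks ramoplanin binding to plastic); MIC by NCCLS broth microdilution.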

E. faecium A 6350 Line-R = test: MIC, NCCLS broth microdilution; assay type: cell-based; settings: E. faecium A 6350 Line-R (Table 2)
Procedure, shortened: as §4

E. faecium UA392 = test: MIC, NCCLS broth microdilution; assay type: cell-based; settings: E. faecium UA392
Procedure, shortened: as §4

S. aureus ATCC35556 MRSA = test: MIC, NCCLS broth microdilution; assay type: cell-based
Procedure, shortened: as §4

S. epidermidis ATCC14990 = test: MIC, NCCLS broth microdilution; assay type: cell-based; settings: S. epidermidis ATCC14990
Procedure, shortened: as §4

S. epidermidis ATCC18972 = test: MIC, NCCLS broth microdilution; assay type: cell-based; settings: S. epidermidis ATCC18972
VRE [6] = test: Time-kill studies against VRE; assay type: cell-based
[7] = Day 29, completion of ramoplanin therapy, 25 mg/kg/day vancomycin + 15 mg/kg/day ramoplanin in drinking water

Ramoplanin
% Mice with VRE [1, 7]: 0% | Enterococci in faeces: Total Enterococci [1, 7]: <2.4 log 10 cfu/g faeces | Enterococci in faeces: VRE [1, 7]: <3.1 log 10 cfu/g faeces | VRE concentration per gram of feces ([1]; mice, after one week of ramoplanin treatment, all animals (undetectable level)): < 3.1 log units | VRE concentration per gram of feces ([1]; mice, before ramoplanin treatment): 9.7 log units | fecal density and carriage of VRE ([1]; mice, ramoplanin 100 μg/mL in drinking water): significantly reduced | concentrations of staphylococci, streptococci, and enterococci in stool ([2]; by Day 10, all subjects): below the level of detection | effect on Gram-positive bacteria in stool ([2]; first measurement on Day 4 of treatment): marked effect | intestinal flora after therapy ([2]; follow-up after the 10-day therapy): re-colonized by normal Gram-positive bacteria | Gram-positive colony counts in feces ([2]; healthy male volunteers, all doses (200, 400, 800 mg B.I.D.), during the 10-day regimen): undetectable levels | subjects with Clostridium spp. concentration reduced below detectable levels (Clostridium spp.; multiple dose study, stool microflora subset): 10 of 12 | clostridial load (Clostridium spp.; two subjects carrying ramoplanin- and vancomycin-resistant Clostridium spp. (C. rectum and C. beijerinckii) before treatment): no variation | binding to feces [3]: bind reversibly to solid components of feces | microbiological activity in feces [3]: microbiologically active in feces | patients with no detectable VRE, number (VRE [4]; 100 mg b.i.d. for seven days): 17 of 21 | patients with no detectable VRE (VRE [4]; 100 mg b.i.d. for seven days): 81.0% | patients with no detectable VRE, number (VRE [4]; 400 mg b.i.d. for seven days): 18 of 20 | patients with no detectable VRE (VRE [4]; 400 mg b.i.d. for seven days): 90.0% | patients VRE free (VRE [4]; 100 mg b.i.d.): 28.6% | patients VRE free (VRE [4]; 400 mg b.i.d.): 41.2% | patients VRE free, number (VRE [4]; 100 mg b.i.d.): 6 of 21 | patients VRE free, number (VRE [4]; 400 mg b.i.d.): 7 of 17 | number of VRE-free patients (VRE [4]; Day 21): comparable among all treatment groups | growth of fecal enterococci (fecal Enterococci): suppressed in all test subjects | fecal ramoplanin concentration [5]: 0.56 to 2.65 mg/g | ramoplanin concentration in plasma or urine ([5]; any subject): No measurable ramoplanin concentration was detected | MIC (E. faecalis A7789 Line-R): 0.06 µg/mL | MIC (E. faecium A 6350 Line-R; CAMHB): 0.25, 0.25 μg/ml | MIC (E. faecium A 6350 Line-R; TSB): 0.25, 0.25 μg/ml | MIC (E. faecium UA392; CAMHB): 0.25, 0.25 μg/ml | MIC (E. faecium UA392; TSB): 0.25, 0.25 μg/ml | MIC (E. faecium UA392; Table 6, 1st): 0.125 µg/mL | MIC (E. faecium UA392; Table 6, 2nd): 0.25 µg/mL | MIC (S. aureus ATCC35556 MRSA; CAMHB): 0.5, 0.5 μg/ml | MIC (S. aureus ATCC35556 MRSA; TSB): 0.125, 0.125 μg/ml | MIC (S. aureus ATCC35556 MRSA; Table 6, 1st): 1 µg/mL | MIC (S. aureus ATCC35556 MRSA; Table 6, 2nd): 0.5 µg/mL | MIC (S. epidermidis ATCC14990; CAMHB): 0.5, 0.5 μg/ml | MIC (S. epidermidis ATCC14990; TSB): 0.5, 0.5 μg/ml | MIC (S. epidermidis ATCC14990; Table 6, 1st): 0.5 µg/mL | MIC (S. epidermidis ATCC14990; Table 6, 2nd): 0.25 µg/mL | MIC (S. epidermidis ATCC18972; CAMHB): 0.5, 0.5 μg/ml | MIC (S. epidermidis ATCC18972; TSB): 1, 1 μg/ml | MIC (S. epidermidis ATCC18972; Table 6, 1st): 1 µg/mL | MIC (S. epidermidis ATCC18972; Table 6, 2nd): 0.25 µg/mL | time-kill activity (VRE [6]): bactericidal activity
